Experimental data: the NIST ThermoML archive (doi:10.1007/s10765-016-2089-2)

Assay: wn = mass fraction of the nth substance listed
Settings: 100 kPa, Liquid; for electrical conductivity: Alternating current cell with electrodes; for viscosity: Capillary tube (Ostwald / Ubbelohde) method; for mass density: Vibrating tube method

O=S(=O)([O-])[O-].[Cu+2] [copper sulfate] + O
Settings | electrical conductivity, 288.15 K [S/m] | electrical conductivity, 293.15 K [S/m] | electrical conductivity, 298.15 K [S/m] | electrical conductivity, 303.15 K [S/m] | mass density, 288.15 K [kg/m3] | mass density, 293.15 K [kg/m3] | mass density, 298.15 K [kg/m3] | viscosity, 288.15 K [mPa·s] | viscosity, 293.15 K [mPa·s] | viscosity, 298.15 K [mPa·s]
w1 = 0.0101 | 0.492 | 0.548 | 0.61 | 0.664 | 1009.6 | 1008.63 | 1007.43 | 1.188 | 1.083 | 0.937
w1 = 0.0202 | 0.851 | 0.943 | 1.05 | 1.14 | 1019.98 | 1019.09 | 1017.84 | 1.263 | 1.132 | 1.001
w1 = 0.0305 | 1.17 | 1.31 | 1.45 | 1.59 | 1030.49 | 1029.38 | 1028.06 | 1.344 | 1.191 | 1.018
w1 = 0.0409 | 1.47 | 1.63 | 1.83 | 2 | 1041.68 | 1040.53 | 1039 | 1.371 | 1.199 | 1.068
w1 = 0.0514 | 1.76 | 1.96 | 2.18 | 2.38 | 1052.54 | 1051.49 | 1049.67 | 1.404 | 1.273 | 1.123
w1 = 0.0621 | 2.03 | 2.26 | 2.52 | 2.75 | 1063.7 | 1062.26 | 1060.66 | 1.472 | 1.31 | 1.142
w1 = 0.0729 | 2.29 | 2.55 | 2.84 | 3.1 | 1074.95 | 1073.67 | 1071.85 | 1.591 | 1.393 | 1.227
w1 = 0.0838 | 2.54 | 2.82 | 3.16 | 3.44 | 1086.38 | 1084.84 | 1083.16 | 1.649 | 1.452 | 1.288
w1 = 0.0948 | 2.77 | 3.09 | 3.44 | 3.76 | 1098.22 | 1096.44 | 1094.5 | 1.744 | 1.528 | 1.36
